Measured values from the METLIN SMRT retention time set (Domingo-Almenara et al. 2019).

Assay: gradient 5% acetonitrile 3 min, to 50% in 2 min, to 85% in 15 min, held 3 min, 100 µL/min
Settings: column: Zorbax Extend-C18 2.1 x 50 mm; eluents: water / acetonitrile, 0.1% formic acid
Summary of the method: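 Using water and acetonitrile that each contained 0.1% formic acid, mixtures of ~100 pure standards were separated at 100 μL/min on a Zorbax Extend-C18 column (2.1 × 50 mm, 1.8 μm). The HPLC fed a quadrupole time-of-flight mass spectrometer working in positive and negative ionization mode, with dead and dwell volumes of 40 μL and 900 μL. Data were acquired over 3 months. Retention time was read from computationally picked adduct peaks after manual inspection of each.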

Compound | RP-LC retention time
CC(=O)Oc1ccc(OC(C)=O)c2c1CC(C)=C(C)C2 | 1110 s
Cc1ccc(OCC(=O)Nc2cncc(-c3nc4ccccc4o3)c2)cc1 | 1010 s
COc1cc2c(cc1OC)C(C1(O)CCCCC1)NCC2 (centres undefined) | 660 s
COc1ccc(-c2ncc3c(n2)CCN(C(=O)c2ccc(Br)cc2)C3)cc1 | 1000 s
CCNC(=O)N1CC=C(C(=O)Nc2ccc(C)cc2)CC1 | 798 s
Cc1ccc(NC(=O)CN2C(=O)CCCc3cc(S(=O)(=O)N4CCCC4)ccc32)cc1Cl | 943 s
CCCC(=O)Nc1ccc2c(c1)CN(C(=O)c1cccc(Cl)c1)C(C(=O)N(C)C)C2 (centres undefined) | 759 s
COC(=O)C1=C(CN2CCN(C)CC2)NC(=O)NC1c1ccc(OC)c(OC)c1 (centres undefined) | 567 s
CCS(=O)(=O)c1cccc(-c2cc(C(=O)NC3CCN(C)CC3)c(C)c3[nH]c4ncc(C)cc4c23)c1 | 645 s
OCCNCc1ccc(-c2ccc(Cl)cc2)o1 | 966 s
COc1cc(OC)c(NS(=O)(=O)c2cc(-c3cc(C(F)(F)F)[nH]n3)sc2C)cc1Cl | 1020 s
COC(=O)c1ccc(NC(=O)C(=O)NCC(O)c2sccc2C)cc1 (centres undefined) | 707 s
CC1CCN(C(=O)c2ccc3c(c2)CCCN3S(C)(=O)=O)CC1 | 836 s
Cc1ccc(C(=O)N2C[C@@H]3C[C@H]2C[C@@H]3NS(C)(=O)=O)s1 | 595 s
COc1ccc(NC(=O)c2cnc(N3CCN(c4ccc(OC)cc4)CC3)nc2N)cc1 | 731 s
CCC(CC)NS(=O)(=O)c1cc(-c2[nH]ncc2C(=O)N(C)C)oc1C | 659 s
Cc1cccn2cc(-c3cccc(NS(=O)(=O)c4ccc(C(C)(C)C)cc4)c3)nc12 | 792 s
Cc1cc(Cl)ccc1NC(=O)Cn1c(C)nc2onc(C)c2c1=O | 818 s
Cc1ccc(-c2nc(-c3cccc(-c4ccnn4C)c3)no2)cc1F | 1250 s
CS(=O)(=O)Nc1ccc(-c2noc(CN3C(=O)COc4ccc(Cl)cc43)n2)cc1 | 879 s

Compound | RP-LC retention time
CCn1cnc(S(=O)(=O)N2CCC(C(=O)NC3CCCCCCC3)CC2)c1 | 769 s
COCCCNC(=O)c1ncoc1-c1ccccc1C(=O)N1CCCC1 | 645 s
Cc1cccc(C)c1NC(=O)N1CCC(OC2CCN(S(C)(=O)=O)CC2)CC1 | 718 s
COC(=O)c1ccc(NC(=O)c2oc(C)nc2C)cc1 | 658 s
COCC1CN(S(=O)(=O)c2cc(F)ccc2OC)CC12CCNCC2 (centres undefined) | 611 s
CC(C)c1nnc(-c2cccnc2N2CCN(C(=O)C3CCCO3)CC2)o1 (centres undefined) | 675 s
Cc1nnc2ccc(-c3noc(-c4ccccc4F)n3)cn12 | 770 s
COc1cccc(-c2nc(-c3cn(-c4cccc(Cl)c4)nn3)no2)c1 | 1140 s
O=C(CSc1nccn1Cc1ccco1)NC1CCCCC1 | 589 s
O=C1CCC2(CCN1)CCN(S(=O)(=O)c1ccc(Cl)c(Cl)c1)CC2 | 839 s
Cc1ccccc1Nc1c(-c2ccc(N3CCOCC3)cc2)nc2ccccn12 | 712 s
CCNc1cc(N2CCC(CCC(=O)NCc3cccs3)CC2)ncn1 | 627 s
Cc1cccc(S(=O)(=O)Nc2cc(-c3cn4ccc(C)cc4n3)ccc2C)c1 | 704 s
c1coc(CN2CC(Oc3ccc(-c4noc(C5CC5)n4)cc3)C2)c1 | 684 s
CCc1noc(NC(C)=O)c1-c1ccc(C)c(S(=O)(=O)Nc2ccc(F)cc2)c1 | 822 s
Cc1sc(-c2cc(C(F)(F)F)on2)cc1S(=O)(=O)Nc1ccccc1 | 1130 s
CCc1nc2cc(N3CCCC(C(=O)NCCN(C)C)C3)cnc2nc1CC (centres undefined) | 604 s
CCNC(=O)c1cc(C)nc2c(C)cc(C)cc12 | 594 s
Cc1ccc(C)c(NC(=O)Cn2cnc(-c3noc(-c4ccncc4)n3)c2)c1 | 687 s
Cn1c(=O)n(CC(=O)O)c(=O)c2c1nc1n2CCCN1c1ccc(Br)cc1 | 751 s

Compound | RP-LC retention time
CN(CC1CCOC1)C(=O)NCc1ccc(F)cc1 (centres undefined) | 669 s
Cc1cc2nc(C)c(=O)n(CCC(=O)NCCc3c[nH]c4ccc(Cl)cc34)c2cc1C | 902 s
CC1CCCN(S(=O)(=O)c2ccc(-c3nnc(C(C)C)o3)o2)C1 (centres undefined) | 977 s
COCCNC(=O)c1nccnc1NC(=O)c1ccc(C)cc1 | 759 s
CC(=O)c1ccc(NC(=O)c2[nH]c3cc(C)sc3c2CN2CCCC2)cc1 | 665 s
O=C(CC1CCN(C(=O)c2ccc3oc(C4CC4)nc3c2)CC1)NC1CCCC1 | 715 s
CS(=O)(=O)N1CCCc2cc(C(=O)NCCC3=CCCCC3)ccc21 | 935 s
CCn1ccc2sc(C)c(C(=O)NCc3ccc(OC)cc3OC)c2c1=O | 814 s
O=C(NCc1ccncc1)C1CN(S(=O)(=O)C2CC2)CC12CCCCC2 (centres undefined) | 598 s
CSc1cccc(NC(=O)NC2CCN(c3cc(C)cc(C)c3)C2=O)c1 (centres undefined) | 929 s
COc1ccc(-n2cc(C(=O)OCCc3ccccn3)c3cc(OC)c(OC)cc3c2=O)cc1 | 681 s
CCc1nc(-c2cccc(-c3noc(CNS(=O)(=O)c4ccc(F)cc4)n3)c2)cs1 | 1060 s
COc1ccc(Cl)c2c(=O)c3c([nH]c12)CCN(CC(=O)Nc1ccccc1Cl)C3 | 638 s
CCOC(=O)c1cnc2nc(C)ccc2c1Nc1ccc(Cl)cc1 | 752 s
COc1ccc(NC(=O)NCC(c2cccnc2)c2c[nH]c3ccccc23)c(OC)c1 (centres undefined) | 650 s
C=C(C)Cn1c(C(C)(C)C)cn2c3c(=O)n(C)c(=O)n(C)c3nc12 | 739 s
CCc1cccc(C)c1Nc1c(-c2ccc(N3CCOCC3)cc2)nc2cnccn12 | 817 s
CCSc1nnc(NC(=O)C2(c3cc(-c4cccs4)on3)CC2)s1 | 1020 s

Now from value to molecule:

RP-LC retention time | Compound
824 s | COc1ccc(CC(=O)Nc2nnc(SCc3ccccc3F)s2)cc1OC
1010 s | O=C(Nc1nc(-c2ccccc2)cs1)c1c(-c2ccccc2)nc2n1CCS2(=O)=O
817 s | Cc1ccc(NC(=O)C2CCN(S(=O)(=O)c3ccc4c(c3)CCCC(=O)N4)CC2)cc1F
889 s | COc1ccc(CCNC(=O)C2CCN(S(C)(=O)=O)c3cc(Cl)ccc3O2)cc1 (centres undefined)
805 s | CCN1C(=O)c2cccnc2Sc2cc(C(=O)NCc3ccc(F)cc3)ccc21
1040 s | Cc1cc(NC(=O)c2cn(Cc3cccc(F)c3)nc2OCc2cccc(F)c2)no1
1220 s | O=C(Nc1ccccc1F)c1c(O)c2cccnc2n(-c2ccc(F)cc2)c1=O
774 s | O=C(NC(c1ccccc1)c1nnc(N2CCCCC2)o1)c1ccco1 (centres undefined)
734 s | O=C(CN1C(=O)CCC1=O)N1CCC(Oc2nc3ccc(F)cc3s2)CC1
865 s | Cc1nnc2c(S(=O)(=O)N(Cc3ccccc3)c3cc(F)cc(F)c3)cccn12
834 s | CN1C(=O)c2cc(C(=O)N3CCN(c4ccccc4F)CC3)nn2CC1(C)C(=O)NC1CCCCC1 (centres undefined)
1170 s | CCOc1ccccc1-c1noc(Cn2c(=O)n(Cc3ccc(C)cc3)c(=O)c3sccc32)n1
592 s | NC(=O)C1CCN(C(=O)c2cc(-n3cnnn3)ccc2Cl)CC1
804 s | Cc1ccc(C)c(NC(=O)CSc2nc(N3CCCCC3)nc3ccccc23)c1
1110 s | Cc1ccccc1OCC(=O)Nc1nc(-c2ccccc2)cs1
630 s | Cc1cc(C(=O)NCCCN2CCOCC2)nc2cc(-c3ccccn3)nn12

RP-LC retention time | Compound
958 s | O=C(NCc1ccccc1F)C1CCCN(c2nc3ccsc3c(=O)n2Cc2ccc(F)cc2)C1 (centres undefined)
1190 s | Cc1nn(-c2ccc(-c3ccccc3)nn2)c(C)c1S(=O)(=O)N(C)Cc1ccccc1
766 s | CCOC(=O)Cn1c(C2CC(=O)N(c3ccc(F)cc3)C2)nc2ccccc21 (centres undefined)
598 s | Cc1noc(C)c1CN1CCN(C(=O)NCc2ccc(F)cc2)CC1
879 s | O=C(CCc1ccccc1)N1CCC(n2nnc3cc(F)ccc3c2=O)CC1
667 s | CCOc1ccccc1NC(=O)Cn1cnc2nc(N3CCCC(C(=O)NC)C3)sc2c1=O (centres undefined)
1040 s | O=C(Cn1cnc2c(sc3nc(-c4ccccc4)ccc32)c1=O)Nc1cc(F)ccc1F
744 s | O=C(O)c1nnn(-c2cccc(F)c2)c1C(F)(F)F
949 s | Cc1nn(-c2ccc(F)cc2)c(C)c1S(=O)(=O)N1CCC(C(=O)Nc2ccccc2F)CC1
945 s | Cc1ccc(-c2nnc(-c3nc(N4CCOCC4)c4ccccc4n3)o2)cc1
899 s | O=C(NC(c1ccccc1)c1nnc(N2CCCC2)o1)c1ccc(F)c(Cl)c1 (centres undefined)
812 s | O=c1c2nnc(SCc3ccc(F)cc3)n2ccn1-c1ccc(F)cc1
884 s | O=C(Nc1nc(-c2ccc(F)cc2)cs1)C1CC1
719 s | O=C(CCc1c[nH]c2ccccc12)N1CC(n2cc(COCC3CC3)nn2)C1
909 s | CCc1cc(C(=O)NCc2ccc(F)cc2)nc2ccnn12
